In paper PMC7587970, “Lanostane Triterpenoids from the Fruiting Bodies of Fomes officinalis and Their Anti-Inflammatory Activities” (Molecules, 2020):
pIC50: −log10 of the molar value. Where two headings read alike, the source gives them in different places.

Target: T1, cyclooxygenase (COX-2) (Ovis aries, UniProt P79208)
T1 construct: gene PTGS2
T1 sequence (P79208 17-603): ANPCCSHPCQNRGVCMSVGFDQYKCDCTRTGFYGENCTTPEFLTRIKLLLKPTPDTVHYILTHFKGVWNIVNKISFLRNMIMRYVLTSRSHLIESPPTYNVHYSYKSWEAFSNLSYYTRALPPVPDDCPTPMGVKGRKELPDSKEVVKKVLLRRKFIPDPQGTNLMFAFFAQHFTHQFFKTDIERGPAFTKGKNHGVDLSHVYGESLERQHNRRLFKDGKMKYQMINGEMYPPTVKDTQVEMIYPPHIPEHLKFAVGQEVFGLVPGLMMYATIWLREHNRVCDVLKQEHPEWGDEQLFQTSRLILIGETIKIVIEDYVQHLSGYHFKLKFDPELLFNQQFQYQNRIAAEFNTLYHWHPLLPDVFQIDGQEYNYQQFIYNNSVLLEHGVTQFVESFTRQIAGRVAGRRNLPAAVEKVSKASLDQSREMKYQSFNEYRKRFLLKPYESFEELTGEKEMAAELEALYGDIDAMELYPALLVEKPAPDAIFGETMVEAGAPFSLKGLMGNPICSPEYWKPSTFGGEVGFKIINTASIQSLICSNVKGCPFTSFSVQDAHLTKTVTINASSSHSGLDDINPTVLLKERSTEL
Assay: COX colorimetric inhibitor screening assay kit (Cayman), ovine recombinant COX-2
Type: biochemical

Row | Structure (SMILES) | pIC50 (read-out: IC50) | pIC50
1 | C[C@@H]1C[C@]2(OC[C@]34[C@H](O)C=C5C(=CC[C@H]6C(C)(C)[C@H](OC(=O)CC(=O)O)CC[C@]56C)[C@]3(C)CC[C@H]14)OC(=O)[C@@H](C)[C@@H]2C [compound 3, officimalonic acid K] | 4.52 | –
2 | COC(=O)CC(=O)O[C@@H]1CC[C@]2(C)C3=C(C(=O)C[C@H]2C1(C)C)[C@]1(C)CC[C@H]([C@H](C)C[C@@H]2OC(=O)C(C)=C2C)[C@@]1(C)[C@H](O)C3 [compound 5, officimalonic acid M] | 4.37 | –
3 | COc1ccc2cc([C@H](C)C(=O)O)ccc2c1 [naproxen, reference compound] | – | 5.09
